Literature values, collected in US20040180086A1 (priority 2002, published 2004).

Tested on: decarboxylation of peripheral levodopa
Conditions: carbidopa administered in combination with levodopa

C[C@@](Cc1ccc(O)c(O)c1)(NN)C(=O)O [Carbidopa, S-α-hydrazino-3,4-dihydroxy-α-methylbenzenepropanoic acid monohydrate]
reduction of the amount of levodopa required to produce a given response: about 75%
